In publication PMC11561197, “Computational-guided discovery of UDP-glycosyltransferases for lauryl glucoside production using engineered E. coli” (Bioresources and Bioprocessing, 2024):

Target: T1, RO3G (UDP-glycosyltransferase candidate, EIE92684.1) (Rhizopus delemar, UniProt I1CW54)
T1 construct: gene RO3G_17395; codon-optimised synthetic gene in pCDFDuet-1, expressed in E. coli BL21(DE3); no predicted signal peptide; not purified
T1 sequence (I1CW54 1-527): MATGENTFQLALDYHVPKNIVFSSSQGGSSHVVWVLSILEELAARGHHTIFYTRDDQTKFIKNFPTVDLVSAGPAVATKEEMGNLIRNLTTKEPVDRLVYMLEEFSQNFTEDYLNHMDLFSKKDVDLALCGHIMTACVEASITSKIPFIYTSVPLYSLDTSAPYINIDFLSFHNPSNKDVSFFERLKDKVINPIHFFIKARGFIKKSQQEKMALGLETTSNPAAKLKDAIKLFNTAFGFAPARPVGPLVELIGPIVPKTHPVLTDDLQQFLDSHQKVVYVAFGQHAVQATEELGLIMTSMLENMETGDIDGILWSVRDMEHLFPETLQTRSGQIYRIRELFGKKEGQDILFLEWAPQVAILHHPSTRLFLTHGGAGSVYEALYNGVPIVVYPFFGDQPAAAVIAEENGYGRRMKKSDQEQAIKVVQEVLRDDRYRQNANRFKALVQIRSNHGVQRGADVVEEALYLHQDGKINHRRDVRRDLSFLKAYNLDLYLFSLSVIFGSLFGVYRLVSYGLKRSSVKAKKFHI
Experiment: 1-dodecanol feeding of expressing E. coli; lauryl glucoside by HPLC-RI and LC-MS
Format: cell-based
Settings: whole E. coli BL21(DE3), M9 with 2% glucose, 2.0 mM 1-dodecanol, 30 °C, 48 h; endogenous UDP-glucose as presumed donor; GFP strain as control

SMILES: CCCCCCCCCCCCO [1-dodecanol]
- 1-dodecanol feeding of expressing E. coli; lauryl glucoside by HPLC-RI and LC-MS: The engineered strain successfully converted 1-dodecanol to lauryl glucoside, as quantified by HPLC
